The values that follow come from patent publication EP1576946A1, “Use of inhibitors of gram-positive cocci in deodorants and antiperspirants” (Henkel Kommanditgesellschaft auf Aktien, priority 2004, dated 2005).

The subject of the test is Anaerococcus octavius (Peptostreptococcus octavius). In words: Filter paper/surface method: inhibition zone and growth under the filter disc. Type of test: cell-based. How it is done:
Weiterhin wurden die Wirkstoffe mit Hilfe des Filterpapier/Oberflächenverfahrens vermessen. Der Testkeim Anaerococcus octavius (Peptostreptococcus octavius) war erhältlich als DSM 10024; er wurde 5 Tage bei 37 °C vorinkubiert. 0,3 ml Wirkstofflösung bzw. 0,3 g wirkstoffhaltiges Produkt wurden auf eine Filterpapierscheibe mit einem Durchmesser von 4,5 cm aufgebracht, anschließend wurde die Filterpapierscheibe auf den bakterienhaltigen Agar gelegt. Nach der Inkubationszeit wurde die Größe des gebildeten Hemmhofes vermessen. Bei den Lösungen, für die kein Hemmhof detektiert werden konnte, weil der Wirkstoff nicht in den Agar penetriert war, wurde zusätzlich das Wachstum unter den Filterpapierscheiben beurteilt.

Where [1] appears, read: 0,5 Gew.-% Aktivsubstanz, medium Wasser, pH tel quel 6,5, after addition of Citronensäure 5,1.
[2] abbreviates: 8 Gew.-% Aktivsubstanz, medium Wasser/ Ethanol (30 Vol.-% / 70 Vol.-%), pH after adjustment 4,2.
The mark [3] stands for this setting: 20 Gew.-% Aktivsubstanz, medium Wasser, pH after adjustment 4,2.
The mark [4] stands for this setting: 22 Gew.-% Aktivsubstanz, medium Wasser, pH after adjustment ca. 4.

For `CCCCC(CC)COCC(O)CO` (stereo not drawn) [Sensiva SC 50, α-Mono-(2-ethylhexyl)glycerinether], under “0,5 Gew.-% Aktivsubstanz, medium Wasser/ Ethanol (50 Vol.-% / 50 Vol.-%), pH tel quel 6,65, after addition of Citronensäure 5,1”, the “Wachstum unter der Filterscheibe” value was “deutlich gehemmt”. Further, under “Anaerococcus octavius, read-out: Durchmesser des Hemmhofes”, the zone of inhibition at 0.5 % was 0 mm.
For `O=C(O)CCCCCCC/C=C\CCCCCCCC(=O)O` [Arlatone DCA, 9(Z)-Octadecendicarbonsäure], the “Wachstum unter der Filterscheibe” value (2 Gew.-% Aktivsubstanz, medium Ethanol) is recorded as “kein Wachstum”. Moreover, the zone of inhibition at 2 % (Anaerococcus octavius, 2 Gew.-% Aktivsubstanz, medium Ethanol, read-out: Durchmesser des Hemmhofes) is 4 mm.
Take Zinkgluconat: under setting [1], the “Durchmesser des Hemmhofes” value came to 0 mm and the “Wachstum unter der Filterscheibe” value is on record as “deutlich gehemmt”.
For Aluminium chlorohydrate, under setting [2], the “Durchmesser des Hemmhofes” value stood at 0 mm and the “Wachstum unter der Filterscheibe” value is reported as “deutlich gehemmt”. In addition, under setting [3], the “Durchmesser des Hemmhofes” value is 0 mm and the “Wachstum unter der Filterscheibe” value is reported as “leicht gehemmt”.
Regarding “Aluminium Zirconium Tetrachlorohydrex Gly [REACH AZP 908 (Powder)]”, under setting [4], the “Durchmesser des Hemmhofes” value is given as 0 mm and the “Wachstum unter der Filterscheibe” value is reported as “kein Wachstum”.
